In patent publication US9011880B2, “Compounds and methods for treating cancer” (IGF Oncology, LLC, priority 2003, dated 2015):
Read-outs that look alike come from different tables or passages of the source.

Columns and labels:
type 1 IGF receptor = settings: cited from earlier work
[1] = humans, cited from earlier work
[2] = test system: LNCAP (human prostate carcinoma); test: Cell proliferation response to insulin and IGF-1: LNCAP; format: cell-based; settings: minimal medium, 1 ug/ml insulin or 100 ng/ml IGF-1, 1, 2 and 4 days, data not shown
Method: (§1) The cell lines LNCAP, MCF-7, MDA-231, SCK, and HOP-92 were also tested to determine whether the cells increased their proliferation in the presence of insulin or IGF-1. Cells were plated in minimal medium with no addition (negative control), 1 ug/ml insulin, 100 ng/ml IGF-1, or 10% fetal calf serum (positive control), and cell density was monitored at 1, 2, and 4 days after plating. […] (Data not shown).

[3] = test system: MCF-7 (human breast carcinoma); test: Cell proliferation response to insulin and IGF-1: MCF-7; format: cell-based; settings: MCF-7, minimal medium, 1 ug/ml insulin or 100 ng/ml IGF-1, 1, 2 and 4 days; data not shown
Method: as §1

[4] = test system: MDA-231 (human breast carcinoma); test: Cell proliferation response to insulin and IGF-1: MDA-231; format: cell-based; settings: MDA-231, minimal medium, 1 ug/ml insulin or 100 ng/ml IGF-1, 1, 2 and 4 days; data not shown
Method: as §1

[5] = test system: SCK (mouse mammary carcinoma); test: Cell proliferation response to insulin and IGF-1: SCK; format: cell-based; settings: minimal medium, 1 ug/ml insulin or 100 ng/ml IGF-1, 1, 2 and 4 days, data not shown
Method: as §1

FSAII tumors = test: FSAII tumor growth in vivo in mice; parameters: species or system mouse
Method: FSAII testing. Six-week old female mice were injected subcutaneously in the thigh with 200,000 FSAII cells each in serum-free medium. Tumors were allowed to grow until they reached an average volume of 100 mm^3 (calculated as length×breadth^2). At that time, treatment was initiated. […] A fifth group of mice was untreated controls. Each group contained five mice. Mice were treated on days 0, 2, and 5. Tumor growth was measured every second day.

LNCAP tumors [6] = format: in vivo, mouse
Method: LNCAP testing. Eight-week old athymic male mice (nu/nu) were injected subcutaneously in the thigh with 1 million LNCAP cells in serum-free medium. Tumors were allowed to grow until they reached an average size of 100 mm^3. […] A fifth group of mice was untreated controls.

IGF-1R = biological target: T1, IGF-1R (Homo sapiens, UniProt P08069); test: Competitive binding assay to IGF-1R on MCF7 cell monolayers; settings: competition against radiolabelled wild-type IGF-1, MCF7 cells
T1 construct: endogenous in cells; host or cells: MCF7 (human breast cancer cell line), near-confluent monolayers
Method: MCF7 cells were plated in a 24-well plate and incubated overnight at 37° C. in a 6.5% CO2 humidified atmosphere in DMEM+glutamine with 10% fetal calf serum (FCS) at a cell number to generate close to confluent monolayers. Cells were washed twice and placed in 0.1 M HEPES-NaOH, pH 7.5, 120 mM NaCl, 5 mM KCl, 1.2 mM MgSO4, 0.1% bovine serum albumin (binding buffer). The plate was preincubated at 4° C. for 1 hour. For the assay wells, long-R3-IGF-1 or IGF-MTX conjugate was added at the indicated concentration in binding buffer (positive controls had no addition). I^125-labeled IGF-1 was then added in the amount of 0.03 μCi per well. Plates were incubated at 4° C. overnight, and then washed twice in binding buffer. Cells were lysed with 300 mM NaOH, 1% SDS. The lysate of each well was counted by scintillation counting. Each condition was assayed in duplicate.
A competition binding assay between the IGF-MTX conjugate and radiolabelled IGF-1 was performed as described in the Materials and Methods. MCF7 cells were grown to near confluence, and incubated with unconjugated long-R3-IGF-1 or conjugated IGF-MTX in competition with radiolabelled wild-type IGF-1 (FIG. 9).

LNCAP cells [7] = test: In vitro proliferation assay, LNCaP (Example 8); format: cell-based, human
Method: LNCaP, MCF7 and MCF7-L cell lines were plated, respectively, in a 96-well plate at 5,000 cells per well in RPMI+glutamine+10% FCS medium in 100 μl. After 24 hours, 100 μl fresh medium was added containing no drug (control), IGF-MTX or MTX at the indicated concentration.

MCF7 tumors = test: MCF7 xenograft tumor growth in nu/nu mice; format: in vivo, mouse
Method: (§2) MCF7 cells (human breast adenocarcinoma cell line) were grown in Eagle's minimal essential medium supplemented with 0.1 mg/ml insulin and 10% FCS. The estrogen-dependent MCF7-L cell line was a gift from Deepali Sachdev of the University of Minnesota. MCF7-L cells were grown in modified IMEM medium (Invitrogen, Carlsbad, Calif., USA) supplemented with 0.1 mg/ml insulin. LNCaP cells (metastatic human prostatic adenocarcinoma) were grown in RPMI supplemented with glutamine and 10% FCS (Invitrogen, Carlsbad, Calif., USA). Cells were grown at 37° C. in a 5% CO2 humidified atmosphere. In each case, cells were grown to approximately two-thirds confluence, harvested by trypsinization, washed with rich medium and then washed twice with PBS and resuspended in phosphate buffered saline in BD matrigel matrix (Becton Dickinson, Franklin Lakes, N.J., USA). Cells were injected intradermally in mice on the back. An estrogen pellet (0.5 mg estradiol, 60-day release, Innovative Research of America, Sarasota, Fla., USA) was implanted subcutaneously between the shoulder blades two days before implanting MCF7 and MCF7-L cells. MCF7 and MCF7-L cells were implanted in 8-week-old female nu/nu mice. LNCaP cells were implanted in 8-week-old male nu/nu mice. […] MTX was dissolved in PBS. Untreated vehicle controls received 2 mM HCl, 1% glycerol. Drug was administered intravenously by tail-vein injection in a volume of 12.5 μl per gram mouse weight. All studies were approved by the University of Minnesota Animal Care and Use Committee and conformed to relevant ethical guidelines.
Three in vivo studies were performed to assess the targeting of MTX with long-R3-IGF-1. In the initial preliminary study, breast cancer MCF7 cells were implanted intradermally in the backs of nude mice.

MCF7-L tumors = test: MCF7-L xenograft tumor growth in nu/nu mice; format: in vivo, mouse; settings: day 22; IGF-MTX 10 nmol of MTX/g or free MTX 40 nmol/g, tail vein, days 0 and 5
Method: as §2, with “Drug was administered intravenously by tail-vein injection in a volume of 12.5 μl per gram mouse weight. All studies were approved by the University of Minnesota Animal Care and Use Committee and conformed to relevant ethical guidelines.” left out

LNCAP tumors [8] = test: LNCaP xenograft tumor growth in nu/nu mice; format: in vivo, mouse; settings: for fold lower dose at which it is or appears more effective than free MTX: LNCaP xenografts (prostate cancer model in mice)
Method: as §2
In a final in vivo study, prostate cancer LNCaP cells were implanted intradermally on day 0 in mice, which were then randomized to different treatment groups.

[9] = IGF-MTX- and MTX-related toxicity in mice (ill effects, body weight); settings: mouse, in vivo
Method: as §2

LNCAP cells [10] = test: LNCAP proliferation in vitro (Example 5, cell counting kit-8)
Method: LNCAP cells were plated in a 96-well plate at 3,000 cells per well in RPMI medium supplemented with 10% fetal bovine serum (FBS). After incubation overnight, the medium in the wells was replaced with 100 μl per well of RPMI supplemented with 0.1% FBS. […] After incubation for 4 days, cell proliferation was assayed with the cell counting kit-8 (Dojindo Molecular Technologies, Gaithersburg, Md.).

[11] = high dose 60 μmoles/kg methotrexate, intraperitoneally, days 0, 2 and 5
[12] = low dose conjugate vs high dose methotrexate

T1 sequence (P08069 31-736 limits assumed): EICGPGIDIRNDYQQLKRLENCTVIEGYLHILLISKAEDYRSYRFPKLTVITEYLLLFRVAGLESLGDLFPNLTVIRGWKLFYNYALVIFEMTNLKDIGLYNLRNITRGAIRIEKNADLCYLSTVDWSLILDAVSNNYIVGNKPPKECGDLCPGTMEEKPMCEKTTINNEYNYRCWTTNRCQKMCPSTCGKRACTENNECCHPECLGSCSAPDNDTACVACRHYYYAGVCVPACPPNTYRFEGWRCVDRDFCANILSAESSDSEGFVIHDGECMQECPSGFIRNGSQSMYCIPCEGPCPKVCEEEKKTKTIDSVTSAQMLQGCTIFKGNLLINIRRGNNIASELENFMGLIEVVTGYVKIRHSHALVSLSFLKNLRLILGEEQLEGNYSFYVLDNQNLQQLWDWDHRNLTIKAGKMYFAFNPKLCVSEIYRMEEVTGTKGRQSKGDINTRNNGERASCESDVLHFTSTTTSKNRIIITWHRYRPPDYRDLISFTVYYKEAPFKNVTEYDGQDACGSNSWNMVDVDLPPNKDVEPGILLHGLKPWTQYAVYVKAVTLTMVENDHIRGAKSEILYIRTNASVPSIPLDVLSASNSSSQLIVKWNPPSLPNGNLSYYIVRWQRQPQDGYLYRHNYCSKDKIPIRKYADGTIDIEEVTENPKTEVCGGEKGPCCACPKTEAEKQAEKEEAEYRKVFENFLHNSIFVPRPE
T1 sequence (P08069 741-1367 limits assumed): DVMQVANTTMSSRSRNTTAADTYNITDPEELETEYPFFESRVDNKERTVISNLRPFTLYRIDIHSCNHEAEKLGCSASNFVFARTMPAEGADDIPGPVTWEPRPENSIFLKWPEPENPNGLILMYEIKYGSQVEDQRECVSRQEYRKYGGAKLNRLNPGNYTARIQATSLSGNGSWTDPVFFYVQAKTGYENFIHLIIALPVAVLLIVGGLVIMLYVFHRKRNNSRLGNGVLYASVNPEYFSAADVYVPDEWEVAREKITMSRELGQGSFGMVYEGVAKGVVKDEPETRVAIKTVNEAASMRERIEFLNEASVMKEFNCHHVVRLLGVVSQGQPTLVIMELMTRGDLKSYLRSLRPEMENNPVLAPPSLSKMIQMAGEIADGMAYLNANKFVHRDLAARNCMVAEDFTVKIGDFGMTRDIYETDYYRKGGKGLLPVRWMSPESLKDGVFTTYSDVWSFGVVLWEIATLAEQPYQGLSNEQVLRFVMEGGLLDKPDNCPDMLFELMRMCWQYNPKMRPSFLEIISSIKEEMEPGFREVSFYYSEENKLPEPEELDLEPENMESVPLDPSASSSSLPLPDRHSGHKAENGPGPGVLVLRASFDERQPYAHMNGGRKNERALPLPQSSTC

## long-R3-IGF-1: variant of IGF-1, SEQ ID NO:4, reduced binding affinity for soluble IGF binding proteins (GroPep)
Type 1 IGF receptor
  binding affinity for the type 1 IGF receptor compared to wild-type IGF-1: equal binding affinity

## CC[C@]1(O)C[C@H]2CN(CCc3c([nH]c4ccccc34)[C@@](C(=O)OC)(c3cc4c(cc3OC)N(C=O)[C@H]3[C@@](O)(C(=O)OC)[C@H](OC(C)=O)[C@]5(CC)C=CCN6CC[C@]43[C@@H]65)C2)C1 [vincristine]
[1]; cumulative per 3 weeks
  maximum safe dosage: about 8 micromoles per meter squared per 3 weeks
[1]; lowest dosage usually used
  minimum effective dosage: about 3.25 micromoles per meter squared per 3 weeks

## insulin: insulin
[2]
  stimulation of proliferation: stimulated proliferation
[3]
  stimulation of proliferation: stimulated proliferation
[4]
  stimulation of proliferation: stimulated proliferation
[5]
  stimulation of proliferation: stimulated proliferation

## O=P1(N(CCCl)CCCl)NCCCO1 (centres unmarked) [cyclophosphamide]
[1]
  maximum safe dosage: approximately 5 millimoles per meter squared per 3 weeks
  minimum effective dosage: approximately 3 millimoles per meter squared per 3 weeks

## insulin-methotrexate conjugate: approximately 3 MTX attached to each insulin by direct amide bonds to the two alpha amino groups and one lysine side chain
FSAII tumors; [11]
  effect on FSAII tumor growth: appeared to very significantly slow tumor growth
  toxicity (death of mice): killed all five mice by one day following the third treatment
FSAII tumors; low dose 15 μmoles/kg methotrexate, intraperitoneally, days 0, 2 and 5
  effect on FSAII tumor growth: significantly slowed tumor growth
FSAII tumors; [12]
  activity against FSAII tumors in vivo relative to unconjugated methotrexate: at least 4 fold
LNCAP tumors [6]; low dose 15 μmoles/kg methotrexate, days 0, 4, 8, 18, 22 and 26
  effect on LNCAP tumor growth: appeared to slow tumor growth
LNCAP tumors [6]; [12]
  lower concentration at which effective against LNCAP tumors relative to unconjugated methotrexate: at least 2.6 times

## IGF-MTX
IGF-1R
  binding to the IGF receptor compared with long-R3-IGF-1: bound more tightly to the IGF receptor than long-R3-IGF-1 at most concentrations
LNCAP cells [7]; LNCaP
  inhibition of proliferation compared to untreated control cells: inhibited proliferation of LNCaP cells
LNCAP cells [7]; LNCaP cells in vitro
  higher concentration than free MTX required to achieve the same inhibitory effect: about 2 times
LNCAP cells [7]; LNCaP, RPMI + 10% FCS, 48 hours with drug, IGF-MTX as concentration of MTX groups
  IC50: ~1000 nM
MCF7 tumors; 10 nmol of MTX/g intravenous, days 0, 4 and 8, 12 days of observation
  MCF7 tumor growth: showed no signs of tumor growth on average
MCF7 tumors; MCF7 xenografts
  fold lower molar dosage at which more effective than free MTX: 4 fold
MCF7 tumors; day 12, IGF-MTX 10 nmol of MTX/g vs free MTX 40 nmol/g
  difference in tumor volume on average between IGF-MTX conjugate-treated group and MTX-treated group: ~8 fold
MCF7-L tumors
  MCF7-L tumor growth inhibition: inhibited about equally
LNCAP tumors [8]; 1.28 nmol/g (as MTX), single tail vein injection on day 5
  LNCaP tumor growth inhibition: did not inhibit tumor growth
LNCAP tumors [8]; 3.2 nmol/g (as MTX), single tail vein injection on day 5
  LNCaP tumor size compared to mice treated with higher doses of free MTX (50, 20 or 8 nmol/g): much smaller
LNCAP tumors [8]; 8 nmol/g (as MTX), single tail vein injection on day 5
  LNCaP tumor size compared to mice treated with higher doses of free MTX (50, 20 or 8 nmol/g): much smaller
LNCAP tumors [8]; 8 nmol/g IGF-MTX vs. 50 nmol/g MTX, day 98, listed as IGF-methotrexate conjugate
  fold lower dose at which more effective than free MTX (statistically significant): 6.5 fold
LNCAP tumors [8]; listed as IGF-MTX conjugate
  fold lower dose at which it is or appears more effective than free MTX: more than 15 fold
LNCAP tumors [8]; listed as IGF-methotrexate conjugate
  fold lower dose at which it is or appears more effective than free MTX: 15 fold
[9]
  Average weight of mice, Day 0: 17.8 g
  Average weight of mice, Day 4: 18.6 g
  Average weight of mice, Day 20: 20.1 g
LNCAP cells [10]; Minimal med. (0.1% FBS), MTX conc. 2 nM
  Cell number (relative units): .677 ± .057 relative units
LNCAP cells [10]; Minimal med. (0.1% FBS), MTX conc. 8 nM
  Cell number (relative units): .794 ± .028 relative units
LNCAP cells [10]; Minimal med. (0.1% FBS), MTX conc. 32 nM
  Cell number (relative units): .921 ± .014 relative units
LNCAP cells [10]; Minimal med. (0.1% FBS), MTX conc. 125 nM
  Cell number (relative units): .921 ± .014 relative units
LNCAP cells [10]; Minimal med. (0.1% FBS), MTX conc. 500 nM
  Cell number (relative units): .635 ± .038 relative units
LNCAP cells [10]; Minimal med. (0.1% FBS), MTX conc. 2000 nM
  Cell number (relative units): .255 ± .014 relative units
LNCAP cells [10]; Rich medium (10% FBS), MTX conc. 2 nM
  Cell number (relative units): 0.716 ± .021 relative units
LNCAP cells [10]; Rich medium (10% FBS), MTX conc. 8 nM
  Cell number (relative units): 0.674 ± .036 relative units
LNCAP cells [10]; Rich medium (10% FBS), MTX conc. 32 nM
  Cell number (relative units): 1.248 ± .018 relative units
LNCAP cells [10]; Rich medium (10% FBS), MTX conc. 125 nM
  Cell number (relative units): 0.891 ± .017 relative units
LNCAP cells [10]; Rich medium (10% FBS), MTX conc. 500 nM
  Cell number (relative units): 0.381 ± .008 relative units
LNCAP cells [10]; Rich medium (10% FBS), MTX conc. 2000 nM
  Cell number (relative units): 0.234 ± .004 relative units

## CC(=O)O[C@@]12CO[C@@H]1C[C@H](O)[C@@]1(C)C(=O)[C@H](O)C3=C(C)[C@@H](OC(=O)[C@H](O)[C@@H](NC(=O)OC(C)(C)C)c4ccccc4)C[C@@](O)([C@@H](OC(=O)c4ccccc4)[C@H]21)C3(C)C [docetaxel]
[1]; cumulative per 3 weeks
  maximum safe dosage: about 120 micromoles per meter squared per 3 weeks
[1]; lowest dosage usually used
  minimum effective dosage: about 70 micromoles per meter squared per 3 weeks

## IGF-1: human insulin-like growth factor-1, SEQ ID NO:1
[2]
  stimulation of proliferation: stimulated proliferation
[3]
  stimulation of proliferation: stimulated proliferation
[4]
  stimulation of proliferation: stimulated proliferation
[5]
  stimulation of proliferation: stimulated proliferation

## COc1cccc2c1C(=O)c1c(O)c3c(c(O)c1C2=O)C[C@@](O)(C(=O)CO)C[C@@H]3O[C@H]1C[C@H](N)[C@H](O)[C@H](C)O1 [doxorubicin]
[1]; cumulative per 3 weeks
  maximum safe dosage: approximately 130 micromoles per meter squared per 3 weeks
[1]; lowest dosage usually used
  minimum effective dosage: ~100 micromoles per meter squared per 3 weeks
[1]; per 3 weeks
  minimum effective dosage: about 60 mg/m^2
